Test results reported in US7001921B1, “Cell adhesion inhibitors” (Biogen Idec MA Inc., priority 1995, dated 2006).

target: T1, VLA4 (Homo sapiens, UniProt P05556+P13612); test: Inhibition of VLA4-dependent adhesion to BSA-CS1 (labelled Ramos cells); assay type: cell-based; details: binding of BCECF-AM labelled Ramos cells to CS1 peptide-coated wells, 2 mM MnCl2, 30 minutes at room temperature; IC50 range
T1 construct: endogenous in cells; host or cells: Ramos cells
Source text: For example, the cell adhesion inhibitory activity of these compounds may be measured by determining the concentration of inhibitor required to block the binding of VLA-4-expressing cells to fibronectin- or CS1-coated plates. In this assay microtiter wells are coated with either fibronectin (containing the CS-1 sequence) or CS-1. If CS-1 is used, it must be conjugated to a carrier protein, such as bovine serum albumin, in order to bind to the wells. Once the wells are coated, varying concentrations of the test compound are then added together with appropriately labelled, VLA-4-expressing cells. Alternatively, the test compound may be added first and allowed to incubate with the coated wells prior to the addition of the cells. The cells are allowed to incubate in the wells for at least 30 minutes. Following incubation, the wells are emptied and washed. Inhibition of binding is measured by quantitating the fluorescence or radioactivity bound to the plate for each of the various concentrations of test compound, as well as for controls containing no test compound.
VLA-4-expressing cells that may be utilized in this assay include Ramos cells, Jurkat cells, A375 melanoma cells, as well as human peripheral blood lymophocytes (PBLs). The cells used in this assay may be fluorescently or radioactively labelled.
This assay was used to assess the potency of VLA4-directed inhibitory compounds of this invention.
We dissolved BSA-SMCC (Pierce Chemical, Rockford, Ill.; Catalog # 77115) in H2O at a concentration of 10 mg/mL. [SEQ ID NO:4]: […](“Cys-Tyr-CS1 peptide”), which we synthesized by conventional solid phase chemistry and purified by HPLC, was dissolved in 10 mM HEPES pH 5, 50 mM NaCl and 0.1 mM EDTA also at a concentration of 10 mg/mL. We then mixed 500 μL of BSA-SMCC, 250 μL of Cys-Tyr-CS1 peptide and 75 μL of […] and allowed the conjugation reaction to proceed for 30 minutes. We stopped the reaction by adding 1 μL of beta-mercaptoethanol. Samples were analyzed for cross-linking by SDS-PAGE. This reaction produced multiple molecules of the Cys-Tyr-CS1 peptide conjugate to each BSA molecule.
We coated the wells of a Linbro titertek polystyrene 96-well flat bottom plate (Flow Laboratories, Maclean, Va.; catalog #76-231-05) with 100 μL of the above-described BSA-CS1 solution diluted to 1 μg/mL in 0.05 M NaHCO3 (15 mM NaHCO3, 35 mM Na2CO3) pH 9.2. Some wells were not coated with CS1 in order to assess non-specific cell binding (NSB). The plate was then incubated overnight at 4° C.
Following this incubation, the contents of the wells were removed by inverting and blotting the plate. All of the wells were then blocked with 100 μL of 1% BSA in PBS, 0.02% NaN3, for a minimum of one hour at room temperature.
3. Preparation of Fluorescently Labelled Ramos Cells Ramos cells are grown, maintained and labelled in RPMI 1640 culture medium containing 1% BSA. Just prior to running the assay, we added 2′,7′-bis-(2-carboxyethyl)5 (and -6) carboxyfluorescein acetoxymethyl ester (“BCECF-AM”; Molecular Probes Inc., Eugene, Oreg.; catalog #B-1150) to a final concentration of 2 μM to a culture of Ramos cells (4×10^6 cells/mL). We incubated the cells for 20 minutes at 37° C.
Following labelling, the cells were washed twice in assay buffer (24 mM TRIS, 137 mM NaCl, 2.7 mM KCl, pH 7.4, containing 0.1% BSA and 2 mM glucose) to remove any cations originating from the culture medium. The cells were then resuspended in assay buffer to 4×10^6 cells/mL and 2 mM MnCl2 was added to upregulate VLA4 on the surface of the cells.
Immediately prior to running the assay, we removed the BSA blocking solution from the 96-well plates and washed the wells with 100 μL of assay buffer. We then added to each well 25 μL of test cell adhesion inhibitory compound at 2× the final concentration and 25 μL of the labelled Ramos cells. Final concentrations were selected across a range of anticipated IC50s, usually between 0.01 nM–10 μM. […]

T1 sequence (P13612 34-1032): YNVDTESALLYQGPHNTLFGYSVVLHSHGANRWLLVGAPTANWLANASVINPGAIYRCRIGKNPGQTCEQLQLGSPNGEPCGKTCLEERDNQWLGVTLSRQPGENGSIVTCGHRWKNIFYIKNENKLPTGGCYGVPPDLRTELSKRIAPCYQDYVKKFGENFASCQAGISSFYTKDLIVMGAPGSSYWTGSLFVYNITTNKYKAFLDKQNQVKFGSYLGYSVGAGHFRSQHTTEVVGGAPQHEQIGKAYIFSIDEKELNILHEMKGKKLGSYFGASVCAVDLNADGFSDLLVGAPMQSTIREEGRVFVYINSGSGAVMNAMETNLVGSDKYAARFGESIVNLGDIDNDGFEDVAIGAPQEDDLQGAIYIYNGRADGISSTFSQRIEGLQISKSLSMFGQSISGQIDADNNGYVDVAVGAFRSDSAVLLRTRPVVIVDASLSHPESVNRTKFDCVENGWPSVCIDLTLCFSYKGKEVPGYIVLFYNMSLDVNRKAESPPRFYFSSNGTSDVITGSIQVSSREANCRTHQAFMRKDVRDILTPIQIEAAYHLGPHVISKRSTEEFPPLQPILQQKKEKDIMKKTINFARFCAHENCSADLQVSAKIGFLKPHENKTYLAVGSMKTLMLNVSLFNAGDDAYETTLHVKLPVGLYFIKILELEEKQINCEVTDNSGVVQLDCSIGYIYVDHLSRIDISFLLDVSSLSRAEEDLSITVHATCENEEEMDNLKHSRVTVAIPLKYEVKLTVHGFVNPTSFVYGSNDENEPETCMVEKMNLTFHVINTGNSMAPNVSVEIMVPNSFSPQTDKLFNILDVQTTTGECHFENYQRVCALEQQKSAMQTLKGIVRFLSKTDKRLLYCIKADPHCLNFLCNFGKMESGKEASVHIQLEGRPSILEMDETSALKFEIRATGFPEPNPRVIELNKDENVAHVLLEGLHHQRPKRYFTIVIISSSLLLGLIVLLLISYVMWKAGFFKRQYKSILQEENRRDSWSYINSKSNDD
T1 sequence (P05556 21-798): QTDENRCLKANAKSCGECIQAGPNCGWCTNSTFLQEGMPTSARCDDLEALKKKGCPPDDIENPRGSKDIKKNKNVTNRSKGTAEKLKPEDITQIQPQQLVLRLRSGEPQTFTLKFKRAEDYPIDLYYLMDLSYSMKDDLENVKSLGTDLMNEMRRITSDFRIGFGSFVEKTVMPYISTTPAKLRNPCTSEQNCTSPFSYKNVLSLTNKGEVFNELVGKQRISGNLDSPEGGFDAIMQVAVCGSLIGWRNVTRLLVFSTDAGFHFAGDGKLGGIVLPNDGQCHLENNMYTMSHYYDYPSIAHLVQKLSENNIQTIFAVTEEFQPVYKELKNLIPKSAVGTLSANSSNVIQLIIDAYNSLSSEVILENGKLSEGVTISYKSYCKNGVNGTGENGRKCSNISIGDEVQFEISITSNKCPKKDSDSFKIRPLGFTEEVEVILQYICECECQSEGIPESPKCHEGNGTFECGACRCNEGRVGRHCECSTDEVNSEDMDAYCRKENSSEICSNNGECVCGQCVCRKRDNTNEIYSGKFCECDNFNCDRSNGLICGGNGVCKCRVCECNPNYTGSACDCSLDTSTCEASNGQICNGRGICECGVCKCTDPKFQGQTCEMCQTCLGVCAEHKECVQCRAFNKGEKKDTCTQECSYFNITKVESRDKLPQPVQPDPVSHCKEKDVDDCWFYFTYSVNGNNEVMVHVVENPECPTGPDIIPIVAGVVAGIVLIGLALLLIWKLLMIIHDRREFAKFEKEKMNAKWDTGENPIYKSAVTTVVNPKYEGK

IC50 | SMILES
< 0.05 µM | Cc1ccccc1NC(=O)Nc1ccc(CC(=O)NC(CC(C)C)C(=O)NC(CC(=O)O)c2ccc3c(c2)OCO3)cc1 (stereo not drawn) [compound 1179]
0.05 to 10 µM | COc1ccc(C(CC(=O)O)NC(=O)C(CC(C)C)NC(=O)Cc2ccc(NC(=O)Nc3nccs3)cc2)cc1 (stereo not drawn) [compound 1180]
0.05 to 10 µM | CC(C)CC(NC(=O)Cc1ccc(NC(=O)Nc2cccc(Cl)c2)cc1)C(=O)NC(CC(=O)O)c1ccc2c(c1)OCO2 (stereo not drawn) [compound 1181]
0.05 to 10 µM | CC(C)CC(NC(=O)Cc1ccc(NC(=O)Nc2ccncc2)cc1)C(=O)NC(CC(=O)O)c1ccc2c(c1)OCO2 (stereo not drawn) [compound 1182]
< 0.05 µM | CC(C)CC(NC(=O)Cc1ccc(NC(=O)Nc2ccccc2Cl)cc1)C(=O)NC(CC(=O)O)c1ccc2c(c1)OCO2 (stereo not drawn) [compound 1185]
> 10 µM | CC(C)CC(NC(=O)CCCNC(=O)Nc1ccccc1)C(=O)NC(CC(=O)O)c1ccccc1 (stereo not drawn) [compound 1187]
> 10 µM | CC(C)CC(NC(=O)C1(c2ccccc2)CC1)C(=O)NC(CC(=O)O)c1ccc2c(c1)OCO2 (stereo not drawn) [compound 1188]
> 10 µM | CC(C)CC(NC(=O)C1CCc2ccccc21)C(=O)NC(CC(=O)O)c1ccccc1 (stereo not drawn) [compound 1189]
< 0.05 µM | COc1ccc(C(CC(=O)O)NC(=O)C(CC(C)C)NC(=O)Cc2ccc(NC(=O)Nc3ccccc3C)cc2)cc1 (stereo not drawn) [compound 1190]
0.05 to 10 µM | O=C(O)CC(NC(=O)C(CCN1CCOCC1)NC(=O)Cc1ccc(NC(=O)Nc2ccccc2)cc1)c1ccc2c(c1)OCO2 (stereo not drawn) [compound 1191]
< 0.05 µM | COc1ccc(C(CC(=O)O)NC(=O)C(CC(C)C)NC(=O)Cc2ccc(NC(=O)Nc3ccccc3OC)cc2)cc1 (stereo not drawn) [compound 1192]
0.05 to 10 µM | COc1ccc(C(CC(=O)O)NC(=O)C(CC(C)C)N(C)C(=O)Cc2ccc(NC(=O)Nc3ccccc3)cc2)cc1 (stereo not drawn) [compound 1193]
0.05 to 10 µM | COc1ccc(C(CC(=O)O)NC(=O)C(CC(C)C)NC(=O)Cc2ccc(NC(=O)Nc3ccccn3)cc2)cc1 (stereo not drawn) [compound 1194]
< 0.05 µM | COc1ccc(C(CC(=O)O)NC(=O)C(CC(C)C)NC(=O)Cc2ccc(NC(=O)Nc3ccccc3)cc2)cc1OC (stereo not drawn) [compound 1196]
> 10 µM | CC(C)CC(NC(=O)Cc1ccc(NC(=O)N2CCOCC2)cc1)C(=O)NC(CC(=O)O)c1ccc2c(c1)OCO2 (stereo not drawn) [compound 1198]
0.05 to 10 µM | COc1ccc(C(CC(=O)O)NC(=O)C(CC[S+](C)[O-])NC(=O)Cc2ccc(NC(=O)Nc3ccccc3)cc2)cc1 (stereo not drawn) [compound 1199]

The remaining lines, values behind:

SMILES | IC50
O=C(O)CC(NC(=O)C(COCc1ccccc1)NC(=O)Cc1ccccc1)c1ccccc1 (stereo not drawn) [compound 1126] | > 10 µM
O=C(O)CC(NC(=O)C(CSCc1ccccc1)NC(=O)Cc1ccccc1)c1ccccc1 (stereo not drawn) [compound 1127] | 0.05 to 10 µM
CC(C)CC(NC(=O)Cc1ccc(NC(=O)Nc2ccccc2)cc1)C(=O)NC(CC(=O)O)c1ccc2c(c1)CCC2 (stereo not drawn) [compound 1128] | 0.05 to 10 µM
O=C(O)CC(NC(=O)C(Cc1ccccc1)NC(=O)Cc1ccc(NC(=O)Nc2ccccc2)cc1)c1ccc2c(c1)OCO2 (stereo not drawn) [compound 1129] | 0.05 to 10 µM
O=C(O)CC(NC(=O)C(Cc1ccccc1)NC(=O)Cc1ccc(NC(=O)Nc2ccccc2)cc1)c1ccccc1 (stereo not drawn) [compound 1130] | 0.05 to 10 µM
CCC(C)C(NC(=O)Cc1ccc(NC(=O)Nc2ccccc2)cc1)C(=O)NC(CC(=O)O)c1ccccc1 (stereo not drawn) [compound 1131] | 0.05 to 10 µM
O=C(O)CC(NC(=O)C(CCCCNC(=O)OCc1ccccc1)NC(=O)Cc1ccc(NC(=O)Nc2ccccc2)cc1)c1ccccc1 (stereo not drawn) [compound 1132] | 0.05 to 10 µM
CCC(C)C(NC(=O)Cc1ccc(NC(=O)Nc2ccccc2)cc1)C(=O)NC(CC(=O)O)c1ccc2c(c1)OCO2 (stereo not drawn) [compound 1133] | 0.05 to 10 µM
CC(C)(C)OC(=O)NCC(NC(=O)Cc1ccc(NC(=O)Nc2ccccc2)cc1)C(=O)NC(CC(=O)O)c1ccccc1 (stereo not drawn) [compound 1134] | 0.05 to 10 µM
CSCCC(NC(=O)Cc1ccc(NC(=O)Nc2ccccc2)cc1)C(=O)NC(CC(=O)O)c1ccccc1 (stereo not drawn) [compound 1135] | < 0.05 µM
NCC(NC(=O)Cc1ccc(NC(=O)Nc2ccccc2)cc1)C(=O)NC(CC(=O)O)c1ccccc1 (stereo not drawn) [compound 1138] | 0.05 to 10 µM
NCCCCC(NC(=O)Cc1ccc(NC(=O)Nc2ccccc2)cc1)C(=O)NC(CC(=O)O)c1ccccc1 (stereo not drawn) [compound 1139] | 0.05 to 10 µM
CC(C)CC(NC(=O)Cc1ccc(O)cc1)C(=O)NC(CC(=O)O)Cc1ccccc1 (stereo not drawn) [compound 1143] | > 10 µM
CC(C)CC(NC(=O)Cc1ccc(O)cc1)C(=O)NC(CC(=O)O)c1ccccc1 (stereo not drawn) [compound 1144] | 0.05 to 10 µM
CC(C)CC(NC(=O)Cc1ccc(NC(=O)OC(C)(C)C)cc1)C(=O)NC(CC(=O)O)c1ccccc1 (stereo not drawn) [compound 1145] | 0.05 to 10 µM
COc1cccc(C(CC(=O)O)NC(=O)C(CC(C)C)NC(=O)Cc2ccc(O)cc2)c1 (stereo not drawn) [compound 1146] | 0.05 to 10 µM
CC(=O)Nc1ccc(CC(=O)NC(CC(C)C)C(=O)NC(CC(=O)O)c2ccccc2)cc1 (stereo not drawn) [compound 1147] | 0.05 to 10 µM
CC(C)CC(NC(=O)Cc1ccc(O)cc1)C(=O)NC(CC(=O)O)c1cccnc1 (stereo not drawn) [compound 1148] | > 10 µM

SMILES | IC50
CC(C)CC(NC(=O)c1ccc2ccccc2n1)C(=O)NC(CC(=O)O)c1ccccc1 (stereo not drawn) [compound 1149] | > 10 µM
CC(C)CC(NC(=O)CCc1ccccc1)C(=O)NC(CC(=O)O)c1ccccc1 (stereo not drawn) [compound 1150] | > 10 µM
CC(C)CC(NC(=O)OCc1ccccc1)C(=O)NC(CC(=O)O)c1cccnc1 (stereo not drawn) [compound 1153] | > 10 µM
CC(C)CC(NC(=O)Cc1ccccc1)C(=O)NC(CC(=O)O)Cc1ccccc1 (stereo not drawn) [compound 1157] | > 10 µM
CC(C)CC(NC(=O)Cc1ccccc1)C(=O)NC(CC(=O)O)c1ccc2c(c1)OCO2 (stereo not drawn) [compound 1158] | 0.05 to 10 µM
COc1ccccc1C(CC(=O)O)NC(=O)C(CC(C)C)NC(=O)Cc1ccccc1 (stereo not drawn) [compound 1159] | > 10 µM
CSCCC(NC(=O)Cc1ccc(NC(=O)Nc2ccccc2)cc1)C(=O)NC(CC(=O)O)c1ccc2c(c1)OCO2 (stereo not drawn) [compound 1163] | 0.05 to 10 µM
CSCCC(NC(=O)Cc1ccccc1)C(=O)NC(CC(=O)O)c1ccc2c(c1)OCO2 (stereo not drawn) [compound 1164] | 0.05 to 10 µM
Cc1cccc(NC(=O)Nc2ccc(CC(=O)NC(CC(C)C)C(=O)NC(CC(=O)O)c3ccc4c(c3)OCO4)cc2)c1 (stereo not drawn) [compound 1168] | 0.05 to 10 µM
CC(C)CC(NC(=O)Cc1ccc(NC(=O)NCc2ccccc2)cc1)C(=O)NC(CC(=O)O)c1ccc2c(c1)OCO2 (stereo not drawn) [compound 1169] | 0.05 to 10 µM
O=C(O)CC(NC(=O)C(CC(=O)N1CCOCC1)NC(=O)Cc1ccc(NC(=O)Nc2ccccc2)cc1)c1ccc2c(c1)OCO2 (stereo not drawn) [compound 1170] | 0.05 to 10 µM
COc1ccc(C(CC(=O)O)NC(=O)C(CC(C)C)NC(=O)Cc2ccc(O)cc2)cc1 (stereo not drawn) [compound 1173] | 0.05 to 10 µM
COc1ccc(C(CC(=O)O)NC(=O)C(CCSC)NC(=O)Cc2ccc(O)cc2)cc1 (stereo not drawn) [compound 1174] | 0.05 to 10 µM
COc1ccc(C(CC(=O)O)NC(=O)C(CCSC)NC(=O)Cc2ccccc2)cc1 (stereo not drawn) [compound 1175] | 0.05 to 10 µM
O=C(O)CC(NC(=O)C(CC(=O)N1CCSCC1)NC(=O)Cc1ccc(NC(=O)Nc2ccccc2)cc1)c1ccc2c(c1)OCO2 (stereo not drawn) [compound 1176] | 0.05 to 10 µM
C#CCN(C)C(=O)CC(NC(=O)Cc1ccc(NC(=O)Nc2ccccc2)cc1)C(=O)NC(CC(=O)O)c1ccc2c(c1)OCO2 (stereo not drawn) [compound 1177] | 0.05 to 10 µM
COc1ccc(C(CC(=O)O)NC(=O)C(CC(C)C)NC(=O)Cc2ccccc2)cc1 (stereo not drawn) [compound 1178] | 0.05 to 10 µM
